The test system of assay [1] is NOS2 (inducible nitric oxide synthase) gene. As to the kind of experiment: NOS2 gene expression in MSU-induced ADTC5 cells (qPCR). It counts as cell-based, mouse. The note with it: extract 2 mg/ml, fucoxanthin 1 ppm, normalized to β-actin. How it is done:
Next, the cells were treated with monosodium urate (MSU) (0.125 mg/ml, in medium) to induce uric acid crystallization. Cells were divided into three groups: Group 1 was treated with Ascophyllum nodosum extract extracted for 120 minutes (2 mg/ml, in medium); group 2 was treated with fucoxanthin (1 ppm, in medium); group 3 was untreated (the control group). […] Next, reverse transcription was performed using a SuperScript™ reverse transcription kit (Invitrogen). The NOS2 (inducible nitric oxide synthase) gene was quantified using the ABI StepOnePlus™ System (Applied Biosystems), and β-actin was used as a reference gene for normalizing each sample. It is known that accumulation of uric acid crystals in the joints causes inflammation in joint cavities, which leads to the increase of NOS2 gene expression in chondrocytes. Therefore, NOS2 gene expression levels were used to evaluate the degree of inflammation of cells caused by uric acid crystallization. […] Statistical analysis was performed by Student's t-test (Microsoft Excel software).
For orientation: Real-time PCR tracks product formation cycle by cycle.

The target of assay [2] is xanthine oxidase (Homo sapiens, UniProt P47989). As to the kind of experiment: Evaluation of the inhibition of xanthine oxidase activity. The format is biochemical. The conditions noted are these: extract extracted for 120 minutes; fucoxanthin at the same concentration as the extract. How it is done: 50 μL of the test sample, 35 μL of phosphate buffer (70 mM, pH 7.5) and 30 μL of xanthine oxidase (0.02 units/mL) were mixed and shaken, and allowed to stand at room temperature for 15 minutes. Then, 60 μL of xanthine (150 μM) was added and allowed to react at room temperature for 30 minutes; the reaction was then stopped by the addition of 100 μL of the HCl (1N), followed by measuring absorbance at 290 nm. The inhibitory effect of the test sample against xanthine oxidase activity was evaluated and compared with the control group.
xanthine oxidase, sequence (P47989 whole entry, species assumed): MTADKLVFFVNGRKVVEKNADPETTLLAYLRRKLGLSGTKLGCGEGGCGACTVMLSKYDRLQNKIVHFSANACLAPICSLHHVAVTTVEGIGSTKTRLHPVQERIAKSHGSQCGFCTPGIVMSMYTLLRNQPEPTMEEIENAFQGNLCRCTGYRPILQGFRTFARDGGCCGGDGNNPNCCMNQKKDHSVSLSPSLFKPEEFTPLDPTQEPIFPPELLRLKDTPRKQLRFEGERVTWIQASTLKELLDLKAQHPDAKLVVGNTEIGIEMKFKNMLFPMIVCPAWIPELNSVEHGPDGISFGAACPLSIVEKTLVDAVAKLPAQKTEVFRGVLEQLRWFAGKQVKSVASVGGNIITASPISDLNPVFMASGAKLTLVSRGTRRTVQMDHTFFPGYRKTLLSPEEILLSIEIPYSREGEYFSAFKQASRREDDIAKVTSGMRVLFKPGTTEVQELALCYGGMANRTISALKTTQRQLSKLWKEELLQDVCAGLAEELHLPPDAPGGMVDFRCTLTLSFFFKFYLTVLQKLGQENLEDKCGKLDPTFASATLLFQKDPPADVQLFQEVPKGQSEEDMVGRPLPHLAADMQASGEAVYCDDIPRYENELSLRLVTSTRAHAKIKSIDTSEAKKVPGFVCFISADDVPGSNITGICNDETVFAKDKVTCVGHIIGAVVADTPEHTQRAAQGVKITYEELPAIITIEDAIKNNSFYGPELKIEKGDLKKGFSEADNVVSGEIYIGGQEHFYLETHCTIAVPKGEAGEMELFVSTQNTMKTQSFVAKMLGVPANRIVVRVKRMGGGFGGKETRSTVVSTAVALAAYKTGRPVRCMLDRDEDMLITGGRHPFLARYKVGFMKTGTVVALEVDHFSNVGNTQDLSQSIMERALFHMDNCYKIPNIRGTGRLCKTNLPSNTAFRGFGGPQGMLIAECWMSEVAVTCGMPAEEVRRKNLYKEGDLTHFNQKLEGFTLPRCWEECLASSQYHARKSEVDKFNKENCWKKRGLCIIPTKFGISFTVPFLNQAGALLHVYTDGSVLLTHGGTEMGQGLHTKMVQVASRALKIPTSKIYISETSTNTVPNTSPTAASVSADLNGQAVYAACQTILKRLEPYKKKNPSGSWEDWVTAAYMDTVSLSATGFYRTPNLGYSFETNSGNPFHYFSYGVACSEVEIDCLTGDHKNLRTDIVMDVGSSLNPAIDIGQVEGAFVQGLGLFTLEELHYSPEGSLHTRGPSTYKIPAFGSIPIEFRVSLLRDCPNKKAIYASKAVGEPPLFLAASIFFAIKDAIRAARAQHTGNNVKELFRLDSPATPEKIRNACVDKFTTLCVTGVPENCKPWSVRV

Consider `CC(=O)O[C@H]1CC(C)(C)C(=C=C/C(C)=C/C=C/C(C)=C/C=C/C=C(C)/C=C/C=C(\C)C(=O)C[C@@]23O[C@]2(C)C[C@@H](O)CC3(C)C)[C@](C)(O)C1` [fucoxanthin], for which the “NOS2 gene expression level (MSU-induced group expressed as 1)” value in assay [1] (ADTC5 cells co-treated with MSU 0.125 mg/ml for 24 hours) worked out at 0.24; in assay [1] (ADTC5 cells co-treated with MSU 0.125 mg/ml for 48 hours), 0.12. Besides, the “inhibition rate against xanthine oxidase” value in assay [2] worked out at 44%.

Source of the values: patent US20170340598A1, “Method of Reducing Uric Acid with Fucoxanthin-Containing Composition” (TCI Co., Ltd., priority 2016, published 2017).
